System: 494315-158-R-J1-PDC complex spheroid growth, percent test/control
Assay: Anticancer human tumor 494315-158-R-J1-PDC patient-derived soft tissue sarcoma cell line growth inhibition [Asc]
Settings: for IC50: curve of first compound; for viability, T/C: stronger effect = lower value
Method: Multicellular complex tumor spheroid response to apoptosis pathway targeting inhibitors Alrizomadlin, Pelcitoclax, and Dasminapant in combination with a variety of drugs and investigational agents in selected tumor cell lines
The MDM2 inhibitor alrizomadlin, the Bcl-2/Bcl-xL inhibitor pelcitoclax, and the IAPs inhibitor dasminapant were evaluated both individually and in combination with standard of care and investigational anticancer small molecules within a complex spheroid model of solid tumors. . Complex spheroids include a stromal component modeled by human endothelial cells (HUVEC) and fibroblasts modeled by human mesenchymal stem cells (MSCs). The concentration ranges selected for each drug and investigational agent were based upon clinically achievable concentrations if the clinical Cmax of the agent was known.
Compounds. The drugs and investigational agents: alrizomadlin (APG-115; NSC831270), pelcitoclax (APG-1252; NSC835773), dasminapant (APG-1387;NSC834197), TAK-243 (NSC785004), copanlisib (NSC809693), olaparib (NSC753686), talazoparib (NSC767125), cobimetinib (NSC 768068), eltanexor (KPT-8602, NSC 794443), abemaciclib (NSC 768073), sotorasib (NSC818433), adagrasib (NSC 831453), MRTX-1133 (NSC 836407), Iadademestat (ORY1001, NSC 806812), and RMC-4630 (NSC839698), were obtained from the NCI Developmental Therapeutics Program Chemical Repository. The FDA-approved anticancer drug set is available from the Developmental Therapeutics Program at https://dtp.cancer.gov/organization/dscb/obtaining/available plates.htm. […] The stock solutions were prepared in dimethyl sulfoxide (DMSO, Sigma-Aldrich, St. Louis, MO, cat. D2650) at 800-fold the tested concentration and stored at -70 degrees C prior to their use. All drugs and investigational agents were tested over a range starting from a high concentration at or near the clinical Cmax and decreasing in half-log increments. If the clinical Cmax for an agent had not been determined, the highest concentration tested was 10 microM.
The patient-derived cancer (PDC) cell lines include five colon adenocarcinomas: 186277-243-T-J2-PDC, 616215-338-R-J1-PDC, 439559-082-T-J2-PDC, 463943-066-T-J2-PDC, and 519858-162-T-J1-PDC; three pancreatic carcinomas: 323965-272-R-J2-PDC, 521955-158-R6-J3-PDC, and 521955-158-R2-J5-PDC; two uterine sarcomas: 327498-152-R-J2-PDC and 993429-296-R-J1-PDC; two rhabdomyosarcomas: 755483-174-R-J1-PDC and 772245-204-R-J1-PDC; two soft tissue sarcomas: 126254-015-R-J1-PDC and 494315-158-R-J1-PDC; two malignant fibrous histiocytomas: 317291-083-R-J1-PDC and 596521-263-R-J1-PDC; two breast carcinomas: 171881-019-R-J1-PDC and 885512-296-R-J2-PDC; and one ovarian carcinoma: 6556581-035-R-J-PDC were obtained from the NCI PDMR, (https://pdmr.cancer.gov). The established cell lines HSSY-2 synovial sarcoma (RRID:CVCL 8719), SYO-1 synovial sarcoma (RRID:CVCL_7146), MPNST malignant peripheral neural sheath tumor were obtained from the Sloan Kettering Institute. The following established cell lines were purchased from the American Type Culture Collection (ATCC, Manassas, VA), Sor the received from the NCI repository:, PANC-1 pancreatic carcinoma (CRL-1469, RRID:CVCL_0480), OVCAR-5 ovarian carcinoma (RRID:CVCL_1628), OVCAR-8 ovarian carcinoma (RRID:CVCL_1629), , MCF-7 breast carcinoma (CRL-12584, RRID:CVCL_0031), MDA-MB-231 breast carcinoma (CRL-12532, RRID:CVCL_0062), NCI-H1876 small cell lung carcinoma (CRL-5902, RRID:CVCL_1503), NCI-H510A small cell lung carcinoma (HTB-184, RRID:CVCL_1565), NCI-H1417 (CRL-5869, RRID:CVCL_1469), and NCI-H196 small cell lung carcinoma (CRL-5823, RRID:CVCL_1509). Dr. Peter Houghton (Greehey Children's Cancer Research Institute, University of Texas Health Science Center, San Antonio, TX) provided Rh-18 rhabdomyosarcoma (RRID:CVCL_1659). Pooled donor human umbilical vein endothelial cells (HUVEC, Lonza, cat. CC-2519) and human mesenchymal stem cells (hMSC, Lonza, cat. PT-2501) were purchased from Lonza (Walkersville, MD).
Cell Culture. […]
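Also: compound exposure lasted seven days after spheroids formed for three days.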

## O=C(c1ccc(F)c(F)c1Nc1ccc(I)cc1F)N1CC(O)([C@@H]2CCCCN2)C1 + CCN1C(C(=O)NC23CCC(C(=O)O)(CC2)CC3)C(c2cccc(Cl)c2F)C2(C(=O)Nc3cc(Cl)ccc32)C12CCCCC2
Second compound 0.03 µM
  IC50: > 1000 nM
Second compound 0.0949 µM
  IC50: > 1000 nM
Second compound 0.3 µM
  IC50: > 1000 nM
Second compound 0.949 µM
  IC50: > 1000 nM
Second compound 3 µM
  IC50: 795 nM
Second compound 0.03 µM, first compound 0.00316 µM
  viability, T/C: 110%
Second compound 0.03 µM, first compound 0.01 µM
  viability, T/C: 116%
Second compound 0.03 µM, first compound 0.0316 µM
  viability, T/C: 121%
Second compound 0.03 µM, first compound 0.1 µM
  viability, T/C: 115%
Second compound 0.03 µM, first compound 0.316 µM
  viability, T/C: 95.7%
Second compound 0.03 µM, first compound 1 µM
  viability, T/C: 61.7%
Second compound 0.0949 µM, first compound 0.00316 µM
  viability, T/C: 98%
Second compound 0.0949 µM, first compound 0.01 µM
  viability, T/C: 90.5%
Second compound 0.0949 µM, first compound 0.0316 µM
  viability, T/C: 110%
Second compound 0.0949 µM, first compound 0.1 µM
  viability, T/C: 99.2%
Second compound 0.0949 µM, first compound 0.316 µM
  viability, T/C: 96.6%
Second compound 0.0949 µM, first compound 1 µM
  viability, T/C: 58.4%
Second compound 0.3 µM, first compound 0.00316 µM
  viability, T/C: 98.9%
Second compound 0.3 µM, first compound 0.01 µM
  viability, T/C: 114%
Second compound 0.3 µM, first compound 0.0316 µM
  viability, T/C: 120%
Second compound 0.3 µM, first compound 0.1 µM
  viability, T/C: 111%
Second compound 0.3 µM, first compound 0.316 µM
  viability, T/C: 87.8%
Second compound 0.3 µM, first compound 1 µM
  viability, T/C: 51.2%
Second compound 0.949 µM, first compound 0.00316 µM
  viability, T/C: 88.4%
Second compound 0.949 µM, first compound 0.01 µM
  viability, T/C: 93.7%
Second compound 0.949 µM, first compound 0.0316 µM
  viability, T/C: 137%
Second compound 0.949 µM, first compound 0.1 µM
  viability, T/C: 127%
Second compound 0.949 µM, first compound 0.316 µM
  viability, T/C: 97.7%
Second compound 0.949 µM, first compound 1 µM
  viability, T/C: 61.3%
Second compound 3 µM, first compound 0.00316 µM
  viability, T/C: 98.2%
Second compound 3 µM, first compound 0.01 µM
  viability, T/C: 102%
Second compound 3 µM, first compound 0.0316 µM
  viability, T/C: 101%
Second compound 3 µM, first compound 0.1 µM
  viability, T/C: 112%
Second compound 3 µM, first compound 0.316 µM
  viability, T/C: 84.5%
Second compound 3 µM, first compound 1 µM
  viability, T/C: 41.4%
